Source: PubChem BioAssay (NCI)
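Values below derive from 48-hour exposures of cells grown in 96-well plates, with endpoints linearly interpolated between the two concentrations bracketing the appropriate inhibition level. GI50: concentration for 50% inhibition of growth. At the TGI there is no net growth.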

Assays:
Test in all cases: NCI anticancer screen, dose series, 48 h
SK-MEL-5 melanoma = tested on: SK-MEL-5 melanoma
HS 578T breast = tested on: HS 578T breast
TK-10 renal = tested on: TK-10 renal
HCC-2998 colon = tested on: HCC-2998 colon
SNB-19 CNS = tested on: SNB-19 CNS
M14 melanoma = tested on: M14 melanoma
NCI-H23 lung = tested on: NCI-H23 lung
A549 NSCLC = tested on: A549 NSCLC
HCT-15 colon = tested on: HCT-15 colon
SF-268 CNS = tested on: SF-268 CNS
OVCAR-8 ovarian = tested on: OVCAR-8 ovarian
BT-549 breast = tested on: BT-549 breast
ACHN renal = tested on: ACHN renal
COLO 205 colon = tested on: COLO 205 colon
NCI-H226 lung = tested on: NCI-H226 lung
SK-MEL-2 melanoma = tested on: SK-MEL-2 melanoma
KM12 colon = tested on: KM12 colon
MCF7 breast = tested on: MCF7 breast
NCI-H460 lung = tested on: NCI-H460 lung
SF-295 CNS = tested on: SF-295 CNS
SNB-75 CNS = tested on: SNB-75 CNS
RPMI-8226 leukemia = tested on: RPMI-8226 leukemia
OVCAR-3 ovarian = tested on: OVCAR-3 ovarian
SK-MEL-28 melanoma = tested on: SK-MEL-28 melanoma
UACC-62 melanoma = tested on: UACC-62 melanoma
NCI/ADR-RES ovarian = tested on: NCI/ADR-RES ovarian
SW-620 colon = tested on: SW-620 colon
786-0 renal = tested on: 786-0 renal
SF-539 CNS = tested on: SF-539 CNS
IGROV1 ovarian = tested on: IGROV1 ovarian
SR leukemia = tested on: SR leukemia
OVCAR-4 ovarian = tested on: OVCAR-4 ovarian
U251 CNS = tested on: U251 CNS
A498 renal = tested on: A498 renal
HOP-92 NSCLC = tested on: HOP-92 NSCLC
EKVX NSCLC = tested on: EKVX NSCLC
K-562 leukemia = tested on: K-562 leukemia
MALME-3M melanoma = tested on: MALME-3M melanoma
HT29 colon = tested on: HT29 colon
HOP-62 NSCLC = tested on: HOP-62 NSCLC
HCT-116 colon = tested on: HCT-116 colon
MDA-MB-435 = tested on: MDA-MB-435
MDA-MB-231 breast = tested on: MDA-MB-231 breast
SN12C renal = tested on: SN12C renal
MOLT-4 leukemia = tested on: MOLT-4 leukemia
SK-OV-3 ovarian = tested on: SK-OV-3 ovarian
CAKI-1 renal = tested on: CAKI-1 renal
NCI-H522 lung = tested on: NCI-H522 lung
UO-31 renal = tested on: UO-31 renal
CCRF-CEM leukemia = tested on: CCRF-CEM leukemia
UACC-257 melanoma = tested on: UACC-257 melanoma
HL-60(TB) leukemia = tested on: HL-60(TB) leukemia
PC-3 prostate = tested on: PC-3 prostate
RXF 393 renal = tested on: RXF 393 renal
LOX IMVI melanoma = tested on: LOX IMVI melanoma
OVCAR-5 ovarian = tested on: OVCAR-5 ovarian
DU-145 prostate = tested on: DU-145 prostate
T-47D breast = tested on: T-47D breast

Compound: O=C1Nc2cc(Cl)ccc2/C1=C\c1c(-c2ccc(F)cc2)nc2ccccn12
- GI50 (SK-MEL-5 melanoma): 0.559 µM
- TGI (SK-MEL-5 melanoma): 2.04 µM
- GI50 (HS 578T breast): 1.66 µM
- TGI (HS 578T breast): > 20.4 µM
- GI50 (TK-10 renal): 1.38 µM
- TGI (TK-10 renal): 2.99 µM
- GI50 (HCC-2998 colon): 1.1 µM
- TGI (HCC-2998 colon): 2.88 µM
- GI50 (SNB-19 CNS): 1.15 µM
- TGI (SNB-19 CNS): 22.1 µM
- GI50 (M14 melanoma): 0.51 µM
- TGI (M14 melanoma): 2.57 µM
- GI50 (NCI-H23 lung): 0.765 µM
- TGI (NCI-H23 lung): 4.45 µM
- GI50 (A549 NSCLC): 0.69 µM
- TGI (A549 NSCLC): 2.15 µM
- GI50 (HCT-15 colon): 0.686 µM
- TGI (HCT-15 colon): 7.26 µM
- GI50 (SF-268 CNS): 1.29 µM
- TGI (SF-268 CNS): > 24.6 µM
- GI50 (OVCAR-8 ovarian): 1.98 µM
- TGI (OVCAR-8 ovarian): 8.21 µM
- GI50 (BT-549 breast): 1.21 µM
- TGI (BT-549 breast): 5.68 µM
- GI50 (ACHN renal): 1.25 µM
- TGI (ACHN renal): 3.22 µM
- GI50 (COLO 205 colon): 0.552 µM
- TGI (COLO 205 colon): 1.94 µM
- GI50 (NCI-H226 lung): 1.32 µM
- TGI (NCI-H226 lung): 3.65 µM
- GI50 (SK-MEL-2 melanoma): 0.458 µM
- TGI (SK-MEL-2 melanoma): 2.19 µM
- GI50 (KM12 colon): 0.573 µM
- TGI (KM12 colon): > 100 µM
- GI50 (MCF7 breast): 0.387 µM
- TGI (MCF7 breast): 2.42 µM
- GI50 (NCI-H460 lung): 0.408 µM
- TGI (NCI-H460 lung): 1.49 µM
- GI50 (SF-295 CNS): 0.376 µM
- TGI (SF-295 CNS): 1.73 µM
- GI50 (SNB-75 CNS): 0.304 µM
- TGI (SNB-75 CNS): 1.34 µM
- GI50 (RPMI-8226 leukemia): 1.36 µM
- GI50 (OVCAR-3 ovarian): 0.424 µM
- TGI (OVCAR-3 ovarian): 2.97 µM
- GI50 (SK-MEL-28 melanoma): 0.995 µM
- TGI (SK-MEL-28 melanoma): 4.59 µM
- GI50 (UACC-62 melanoma): 0.546 µM
- TGI (UACC-62 melanoma): 12.4 µM
- GI50 (NCI/ADR-RES ovarian): 0.277 µM
- TGI (NCI/ADR-RES ovarian): 1.06 µM
- GI50 (SW-620 colon): 0.445 µM
- TGI (SW-620 colon): 2.6 µM
- GI50 (786-0 renal): 0.998 µM
- TGI (786-0 renal): 2.59 µM
- GI50 (SF-539 CNS): 0.915 µM
- TGI (SF-539 CNS): 2.95 µM
- GI50 (IGROV1 ovarian): 1.02 µM
- TGI (IGROV1 ovarian): 5.82 µM
- GI50 (SR leukemia): 0.112 µM
- TGI (SR leukemia): > 100 µM
- GI50 (OVCAR-4 ovarian): 1.45 µM
- TGI (OVCAR-4 ovarian): 3 µM
- GI50 (U251 CNS): 0.541 µM
- TGI (U251 CNS): 2.09 µM
- GI50 (A498 renal): 1.31 µM
- TGI (A498 renal): 6.03 µM
- GI50 (HOP-92 NSCLC): 4.42 µM
- TGI (HOP-92 NSCLC): 26.5 µM
- GI50 (EKVX NSCLC): 2.77 µM
- TGI (EKVX NSCLC): > 100 µM
- GI50 (K-562 leukemia): 0.32 µM
- TGI (K-562 leukemia): > 100 µM
- GI50 (MALME-3M melanoma): 0.69 µM
- TGI (MALME-3M melanoma): 2.41 µM
- GI50 (HT29 colon): 0.389 µM
- TGI (HT29 colon): 1.34 µM
- GI50 (HOP-62 NSCLC): 0.916 µM
- TGI (HOP-62 NSCLC): 2.29 µM
- GI50 (HCT-116 colon): 0.444 µM
- TGI (HCT-116 colon): 1.63 µM
- GI50 (MDA-MB-435): 0.167 µM
- TGI (MDA-MB-435): 0.519 µM
- GI50 (MDA-MB-231 breast): 1.48 µM
- TGI (MDA-MB-231 breast): 6.38 µM
- GI50 (SN12C renal): 1.03 µM
- GI50 (MOLT-4 leukemia): 0.563 µM
- TGI (MOLT-4 leukemia): > 100 µM
- GI50 (SK-OV-3 ovarian): 1.05 µM
- TGI (SK-OV-3 ovarian): 2.42 µM
- GI50 (CAKI-1 renal): 0.498 µM
- TGI (CAKI-1 renal): 2.13 µM
- GI50 (NCI-H522 lung): 0.239 µM
- TGI (NCI-H522 lung): 0.919 µM
- GI50 (UO-31 renal): 0.686 µM
- TGI (UO-31 renal): 2.7 µM
- GI50 (CCRF-CEM leukemia): 0.832 µM
- TGI (CCRF-CEM leukemia): > 100 µM
- GI50 (UACC-257 melanoma): 5.02 µM
- TGI (UACC-257 melanoma): 48.5 µM
- GI50 (HL-60(TB) leukemia): 0.346 µM
- TGI (HL-60(TB) leukemia): 1.46 µM
- GI50 (PC-3 prostate): 1.14 µM
- TGI (PC-3 prostate): 5.39 µM
- GI50 (RXF 393 renal): 0.631 µM
- TGI (RXF 393 renal): 2.19 µM
- GI50 (LOX IMVI melanoma): 0.723 µM
- TGI (LOX IMVI melanoma): 2.65 µM
- GI50 (OVCAR-5 ovarian): 1.7 µM
- TGI (OVCAR-5 ovarian): 5.81 µM
- GI50 (DU-145 prostate): 1.49 µM
- GI50 (T-47D breast): 1.12 µM
- TGI (T-47D breast): 2.96 µM
